Assay results as given in patent US20240109865A1, “INDAZOLE COMPOUNDS AS KINASE INHIBITORS” (TYRA BIOSCIENCES, INC., priority 2020, published 2024).
Where two headings read alike, the source gives them in different places.

Assays:
[1] = target: FGFR3-BAIAP2L1 Ba/F3 cells (Homo sapiens, UniProt P22607); assay: Ba/F3 cell viability assay (CellTiter-Glo 2.0), FGFR3-BAIAP2L1 Ba/F3; format: cell-based
How it was run: (§1)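 Viability read as ATP luminescence (CellTiter-Glo 2.0) after 48 h compound exposure, normalized to DMSO-treated cells and fitted with a 4-parameter curve for IC50. Cells: Ba/F3 dependent on FGFR1-BCR or FGFR3-BAIAP2L1 fusion kinase; top dose 30 μM, 10-fold steps, 9 doses in triplicate.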

FGFR1-BCR Ba/F3 cells = FGFR1-BCR Ba/F3 cells (Homo sapiens, UniProt P11362); assay: Ba/F3 cell viability assay (CellTiter-Glo 2.0), FGFR1-BCR Ba/F3; format: cell-based
Sequence of FGFR1-BCR Ba/F3 cells (P11362 22-822 limits assumed, change not shown): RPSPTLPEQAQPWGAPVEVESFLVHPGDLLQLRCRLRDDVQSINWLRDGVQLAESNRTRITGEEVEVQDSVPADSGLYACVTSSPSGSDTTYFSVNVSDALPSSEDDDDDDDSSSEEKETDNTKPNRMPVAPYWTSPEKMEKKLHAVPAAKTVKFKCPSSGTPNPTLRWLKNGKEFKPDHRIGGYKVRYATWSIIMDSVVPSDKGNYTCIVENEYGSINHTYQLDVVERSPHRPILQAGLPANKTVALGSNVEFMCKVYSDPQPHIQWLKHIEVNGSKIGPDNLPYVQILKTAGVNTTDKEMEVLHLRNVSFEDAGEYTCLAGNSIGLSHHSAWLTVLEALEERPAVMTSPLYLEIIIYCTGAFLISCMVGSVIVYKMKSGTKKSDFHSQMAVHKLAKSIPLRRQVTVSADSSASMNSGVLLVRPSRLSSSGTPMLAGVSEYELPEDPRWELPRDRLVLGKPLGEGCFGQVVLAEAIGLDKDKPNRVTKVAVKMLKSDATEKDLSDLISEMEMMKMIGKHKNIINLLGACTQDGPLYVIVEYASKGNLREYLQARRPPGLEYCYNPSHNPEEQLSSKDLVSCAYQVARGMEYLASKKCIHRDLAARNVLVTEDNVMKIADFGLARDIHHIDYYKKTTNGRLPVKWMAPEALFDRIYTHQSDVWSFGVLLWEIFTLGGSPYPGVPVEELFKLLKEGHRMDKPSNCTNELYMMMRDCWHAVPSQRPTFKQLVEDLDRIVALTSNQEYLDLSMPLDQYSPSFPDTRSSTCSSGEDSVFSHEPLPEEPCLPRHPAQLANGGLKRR
How it was run: as §1

[2] = system: RT112/84 cells (FGFR3-fusion); assay: RT112/84 cancer cell line cell viability assay (CellTiter-Glo 2.0); format: cell-based; conditions: Homo sapiens, 72 hours, Cell Titer Glo 2.0
How it was run: (§2)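 Viability was measured as cellular ATP by CellTiter-Glo 2.0 luminescence after 72 h compound exposure, using nine 10-fold doses from 30 μM, in triplicate. Cells were plated at 10,000/well in RPMI1640 with 10% FBS the day before dosing. Signal was expressed as % of DMSO-treated control, and IC50 came from a 4-parameter fit.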

[3] = system: UM-UC-14 cells (FGFR3(S249C)); assay: UM-UC-14 cancer cell line cell viability assay (CellTiter-Glo 2.0); format: cell-based; conditions: UMUC14, 72 hours, Cell Titer Glo 2.0
Excerpt: Experimental Purpose: To detect the change of intracellular ATP by Cell Titer-Glo® and to evaluate the inhibitory effect of the compounds on cancer cell lines by determining the in vitro IC50 value of the compounds.
Cell Titer-Glo® 2.0 Luminescent cell viability assay reagent was purchased from Promega (Madison, WI). RT112/84 and KG-1 cell lines were purchased from American Type Culture Collection (Manassas, VA). UM-UC-14 cell line was purchased from Sigma (St. Louis, MO). RT112/84, UM-UC-14, and KG-1 cells were cultured in RPMI1640 media supplemented with 10% fetal bovine serum. Cultures were maintained at 37° C. in a humidified atmosphere of 5% C02 and 95% air.
Cell Viability Assay Procedure: Cells were plated in 96-well clear bottom/white plates (Corning #3903) at 10,000 cells/well in 100 μl of media, incubated overnight. The next day, test compound DMSO stock solutions were made at 10 mM and 2 μM final concentration. Compounds were then added to cells in a 9-dose, 10-fold dilution series starting at 30 μM with an HP 300e Digital Dispenser (each dose was applied in triplicate). DMSO was backfilled to each well up to 301 nL total volume of test compound+DMSO, and a total of 301 nL DMSO was added to a control/no test compound well in triplicate. The cells in cell culture plates were incubated with the compounds at 37° C. and 5% C02 for 72 hours. Then 50 μl of Cell Titer Glo 2.0 reagent was added to each well of the cell culture plates. The contents were covered from light and mixed on an orbital shaker at room temperature for 10 min. Luminescence was recorded by a Synergy H1 Microplate Reader (Biotek, Winooski, VT). Cells were assessed as a percentage of DMSO only treated control cells. Curves were plotted and IC50 values were calculated using the GraphPad Prism 8 program based on a sigmoidal dose-response equation (4 parameter).

[4] = system: KG-1 cells (FGFR1-fusion); assay: KG-1 cancer cell line cell viability assay (CellTiter-Glo 2.0); format: cell-based; conditions: Homo sapiens, 72 hours, Cell Titer Glo 2.0
How it was run: as §2

FGFR1 = FGFR1 (Homo sapiens (Human), UniProt P11362); assay: Kinase assay, binding constants (Kd), kinase-tagged T7 phage, qPCR
Sequence of FGFR1 (P11362 22-822): as the sequence (P11362 22-822 limits assumed, change not shown) above
How it was run: (§3)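 Kinase-tagged T7 phage (grown in BL21-derived E. coli) competed with test compound for immobilized biotinylated ligand on streptavidin beads. Kds came from an 11-point 3-fold dilution series at 0.9% final DMSO. Bound kinase was eluted with non-biotinylated ligand and quantified by qPCR, with Hill slope fixed at −1.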

FGFR2 = FGFR2 (Homo sapiens (Human), UniProt P21802); assay: as above
Sequence of FGFR2 (P21802 22-821): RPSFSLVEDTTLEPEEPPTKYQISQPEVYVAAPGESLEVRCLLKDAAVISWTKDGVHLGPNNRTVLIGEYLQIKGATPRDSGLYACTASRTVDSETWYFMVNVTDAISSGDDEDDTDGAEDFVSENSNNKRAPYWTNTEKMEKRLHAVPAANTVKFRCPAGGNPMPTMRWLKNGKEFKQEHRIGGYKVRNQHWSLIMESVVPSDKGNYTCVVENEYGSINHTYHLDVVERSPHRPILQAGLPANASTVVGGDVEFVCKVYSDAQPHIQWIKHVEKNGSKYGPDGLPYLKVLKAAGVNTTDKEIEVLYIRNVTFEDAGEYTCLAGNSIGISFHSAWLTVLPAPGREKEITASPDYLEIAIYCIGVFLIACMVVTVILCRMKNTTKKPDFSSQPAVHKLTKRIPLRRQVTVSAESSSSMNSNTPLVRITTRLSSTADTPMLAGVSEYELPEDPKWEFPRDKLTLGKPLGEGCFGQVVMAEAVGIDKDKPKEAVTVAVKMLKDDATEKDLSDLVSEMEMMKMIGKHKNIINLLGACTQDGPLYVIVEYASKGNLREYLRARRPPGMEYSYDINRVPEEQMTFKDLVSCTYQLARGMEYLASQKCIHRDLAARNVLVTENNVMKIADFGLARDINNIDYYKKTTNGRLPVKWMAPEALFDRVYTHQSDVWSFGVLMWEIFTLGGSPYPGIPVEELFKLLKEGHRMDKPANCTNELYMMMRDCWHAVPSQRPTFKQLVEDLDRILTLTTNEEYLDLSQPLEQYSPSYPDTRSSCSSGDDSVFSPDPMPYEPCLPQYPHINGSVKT
How it was run: as §3

FGFR3 = FGFR3 (Homo sapiens (Human), UniProt P22607); assay: as above
Sequence of FGFR3 (P22607 23-806): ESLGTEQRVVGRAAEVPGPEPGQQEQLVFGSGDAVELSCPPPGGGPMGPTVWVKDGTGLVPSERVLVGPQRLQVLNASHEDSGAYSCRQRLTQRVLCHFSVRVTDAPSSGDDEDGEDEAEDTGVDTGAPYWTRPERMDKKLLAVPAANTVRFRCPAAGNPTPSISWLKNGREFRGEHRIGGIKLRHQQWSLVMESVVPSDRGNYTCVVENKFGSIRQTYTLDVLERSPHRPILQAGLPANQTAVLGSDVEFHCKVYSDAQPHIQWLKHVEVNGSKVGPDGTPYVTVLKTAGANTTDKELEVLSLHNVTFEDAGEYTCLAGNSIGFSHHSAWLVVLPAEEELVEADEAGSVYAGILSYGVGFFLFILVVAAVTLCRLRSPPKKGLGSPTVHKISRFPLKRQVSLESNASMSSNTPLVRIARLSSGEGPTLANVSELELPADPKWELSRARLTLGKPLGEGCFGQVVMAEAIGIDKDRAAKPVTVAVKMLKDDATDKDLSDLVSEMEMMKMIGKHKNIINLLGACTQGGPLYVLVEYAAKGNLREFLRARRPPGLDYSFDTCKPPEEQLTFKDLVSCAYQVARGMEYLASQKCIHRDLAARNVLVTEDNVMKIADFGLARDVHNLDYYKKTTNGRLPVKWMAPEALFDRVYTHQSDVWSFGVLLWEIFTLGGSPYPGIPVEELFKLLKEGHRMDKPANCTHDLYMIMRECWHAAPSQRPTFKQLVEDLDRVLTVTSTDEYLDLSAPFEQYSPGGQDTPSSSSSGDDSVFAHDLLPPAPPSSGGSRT
How it was run: as §3

FGFR3 (V555M) = FGFR3 (V555M) (Homo sapiens (Human), UniProt P22607, V555M); assay: as above; conditions: V555M mutant
Sequence of FGFR3 (V555M) (P22607 23-806 V555M): as the sequence (P22607 23-806) above, with V533M counted along it
How it was run: as §3

FGFR4 = FGFR4 (Homo sapiens (Human), UniProt P22455); assay: as above
Sequence of FGFR4 (P22455 22-802): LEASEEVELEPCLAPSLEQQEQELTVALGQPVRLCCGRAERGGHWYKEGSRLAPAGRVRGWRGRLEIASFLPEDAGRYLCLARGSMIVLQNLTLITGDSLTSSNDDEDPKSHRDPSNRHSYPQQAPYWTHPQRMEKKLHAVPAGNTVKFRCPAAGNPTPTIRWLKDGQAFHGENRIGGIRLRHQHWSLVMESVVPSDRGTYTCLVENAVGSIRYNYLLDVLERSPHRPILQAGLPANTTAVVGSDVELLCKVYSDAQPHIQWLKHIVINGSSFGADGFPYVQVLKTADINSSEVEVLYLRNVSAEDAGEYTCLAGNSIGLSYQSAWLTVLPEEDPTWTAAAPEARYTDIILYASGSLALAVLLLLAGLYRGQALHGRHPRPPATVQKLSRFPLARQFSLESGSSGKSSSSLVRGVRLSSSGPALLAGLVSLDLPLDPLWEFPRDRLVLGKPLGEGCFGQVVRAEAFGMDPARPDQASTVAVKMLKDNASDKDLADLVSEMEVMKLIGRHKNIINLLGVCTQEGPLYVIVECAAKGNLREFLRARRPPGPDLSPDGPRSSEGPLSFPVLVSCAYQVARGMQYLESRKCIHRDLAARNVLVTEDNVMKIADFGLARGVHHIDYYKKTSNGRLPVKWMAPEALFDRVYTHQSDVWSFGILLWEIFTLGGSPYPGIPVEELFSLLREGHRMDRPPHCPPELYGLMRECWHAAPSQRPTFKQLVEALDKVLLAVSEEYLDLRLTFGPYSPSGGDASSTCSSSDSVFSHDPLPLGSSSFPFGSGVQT
How it was run: as §3

[5] = FGFR3 > FGFR1 selectivity ratio in Ba/F3 FGFR fusion cell based assays
[6] = read-out: Ba/F3 Cells FGFR3 (IC50 nM); FGFR3-BAIAP2L1 Ba/F3 cells, 48 hours, Cell Titer Glo 2.0
[7] = read-out: Ba/F3 Cells FGFR1 (IC50 nM), 48 hours, Cell Titer Glo 2.0

Sequence of FGFR3-BAIAP2L1 Ba/F3 cells (P22607 23-806 limits assumed, change not shown): as the sequence (P22607 23-806) above

Row | Structure (SMILES) | Ba/F3 FGFR1/FGFR3 Selectivity [1, 5] | IC50 [1, 6] [nM] | IC50 (FGFR1-BCR Ba/F3 cells; [7]) [nM] | IC50 [2] [nM] | IC50 [3] [nM] | IC50 [4] [nM] | Kd (FGFR1) [nM] | Kd (FGFR2) [nM] | Kd (FGFR3) [nM] | Kd (FGFR3 (V555M)) [nM] | Kd (FGFR4) [nM] | IC50 ([1]; FGFR3-BAIAP2L1 Ba/F3 cells, 48 hours, Cell Titer Glo 2.0; read-out: Ba/F3 Cells FGFR3 (IC50 nM)) [nM] | IC50 (FGFR1-BCR Ba/F3 cells; 48 hours, Cell Titer Glo 2.0, read-out: Ba/F3 Cells FGFR1 (IC50 nM)) [nM]
1 | C[C@@H](Oc1ccc2[nH]nc(-c3ccc(N4CCN(C(=O)N(C)C)CC4)nc3)c2c1)c1c(Cl)cncc1Cl [Example 5, 4-[5-[5-[(1R)-1-(3,5-dichloro-4-pyridyl)ethoxy]-1H-indazol-3-yl]-2-pyridyl]-N,N-dimethyl-piperazine-1-carboxamide] | 22 | 1 to 20 | 100 to 300 | 1 to 20 | 1 to 20 | 20 to 100 | 1 to 20 | 1 to 20 | 1 to 20 | 1 to 20 | 1 to 20 | – | –
2 | C[C@@H](Oc1ccc2[nH]nc(-c3ccc(N4CCN(S(C)(=O)=O)CC4)nc3)c2c1)c1c(Cl)cncc1Cl [Example 6, 5-[(1R)-1-(3,5-dichloro-4-pyridyl)ethoxy]-3-[6-(4-methylsulfonyl-piperazin-1-yl)-3-pyridyl]-1H-indazole] | 13 | 1 to 20 | 20 to 100 | 1 to 20 | 1 to 20 | 20 to 100 | 1 to 20 | 20 to 100 | 1 to 20 | 1 to 20 | 1 to 20 | – | –
3 | C[C@@H](Oc1ccc2[nH]nc(-c3ccc(N4CCN(S(=O)(=O)N5CCN(C)CC5)CC4)nc3)c2c1)c1c(Cl)cncc1Cl [Example 8, 5-[(1R)-1-(3,5-dichloro-4-pyridyl)ethoxy]-3-[6-[4-(4-methylpiperazin-1-yl)sulfonylpiperazin-1-yl]-3-pyridyl]-1H-indazole] | 16 | 1 to 20 | 100 to 300 | 1 to 20 | 1 to 20 | 100 to 300 | 20 to 100 | 20 to 100 | 1 to 20 | 1 to 20 | 1 to 20 | – | –
4 | CCC(=O)N1CCN(c2ccc(-c3n[nH]c4ccc(O[C@H](C)c5c(Cl)cncc5Cl)cc34)cn2)CC1 [Example 9, 1-[4-[5-[5-[(1R)-1-(3,5-dichloro-4-pyridyl)ethoxy]-1H-indazol-3-yl]-2-pyridyl]piperazin-1-yl]propan-1-one] | 19 | 1 to 20 | 100 to 300 | 1 to 20 | 1 to 20 | 20 to 100 | 1 to 20 | 1 to 20 | 1 to 20 | 1 to 20 | 1 to 20 | – | –
5 | C[C@@H](Oc1ccc2[nH]nc(-c3cnc(N4CCNCC4)c(F)c3)c2c1)c1c(Cl)cncc1Cl [Example 10, 5-[(1R)-1-(3,5-Dichloro-4-pyridyl)ethoxy]-3-(5-fluoro-6-piperazin-1-yl-3-pyridyl)-1H-indazole] | 9 | 1 to 20 | 20 to 100 | 1 to 20 | 1 to 20 | 20 to 100 | 1 to 20 | 1 to 20 | 1 to 20 | 1 to 20 | 1 to 20 | – | –
6 | C[C@@H](Oc1ccc2[nH]nc(-c3cnc(N4CCNCC4)nc3)c2c1)c1c(Cl)cncc1Cl [Example 11, 5-[(1R)-1-(3,5-dichloro-4-pyridyl)ethoxy]-3-(2-piperazin-1-ylpyrimidin-5-yl)-1H-indazole] | 9 | 1 to 20 | 100 to 300 | 1 to 20 | 20 to 100 | 20 to 100 | 1 to 20 | 1 to 20 | 1 to 20 | 1 to 20 | 1 to 20 | – | –
7 | C[C@@H](Oc1ccc2[nH]nc(-c3ccc(N4CCN(C(N)=O)CC4)nc3)c2c1)c1c(Cl)cncc1Cl [Example 12, 4-[5-[5-[(1R)-1-(3,5-dichloro-4-pyridyl)ethoxy]-1H-indazol-3-yl]-2-pyridyl]piperazine-1-carboxamide] | 19 | 1 to 20 | 100 to 300 | 1 to 20 | 1 to 20 | 20 to 100 | 1 to 20 | 1 to 20 | 1 to 20 | 1 to 20 | 1 to 20 | – | –
8 | C[C@@H](Oc1ccc2[nH]nc(-c3cnc(N4CCN(C(=O)N5CCN(C)CC5)CC4)c(F)c3)c2c1)c1c(Cl)cncc1Cl [Example 13, [4-[5-[5-[(1R)-1-(3,5-Dichloro-4-pyridyl)ethoxy]-1H-indazol-3-yl]-3-fluoro-2-pyridyl]piperazin-1-yl]-(4-methylpiperazin-1-yl)methanone] | 11 | 20 to 100 | 100 to 300 | 1 to 20 | 20 to 100 | 20 to 100 | 1 to 20 | 1 to 20 | 1 to 20 | 1 to 20 | 1 to 20 | – | –
9 | C[C@@H](Oc1ccc2[nH]nc(-c3cnc(N4CCN(S(C)(=O)=O)CC4)nc3)c2c1)c1c(Cl)cncc1Cl [Example 14, 5-[(1R)-1-(3,5-Dichloro-4-pyridyl)ethoxy]-3-[2-(4-methylsulfonylpiperazin-1-yl)pyrimidin-5-yl]-1H-indazole] | 18 | 1 to 20 | > 300 | 1 to 20 | 20 to 100 | 100 to 300 | 1 to 20 | 20 to 100 | 1 to 20 | 1 to 20 | 1 to 20 | – | –
10 | C[C@@H](Oc1ccc2[nH]nc(-c3cnc(N4CCN(C(=O)N5CCN(C)CC5)CC4)nc3)c2c1)c1c(Cl)cncc1Cl [Example 15, [4-[5-[5-[(1R)-1-(3,5-dichloro-4-pyridyl)ethoxy]-1H-indazol-3-yl]pyrimidin-2-yl]piperazin-1-yl]-(4-methylpiperazin-1-yl)methanone] | 10 | 20 to 100 | > 300 | 1 to 20 | 1 to 20 | 20 to 100 | 1 to 20 | 1 to 20 | 1 to 20 | 1 to 20 | 1 to 20 | – | –
11 | C[C@@H](Oc1ccc2[nH]nc(-c3ccc(N4CC5CC(C4)N5)nc3)c2c1)c1c(Cl)cncc1Cl [Example 16, 3-[6-(3,6-Diazabicyclo[3.1.1]heptan-3-yl)-3-pyridyl]-5-[(1R)-1-(3,5-dichloro-4-pyridyl)ethoxy]-1H-indazole] | 14 | – | – | 1 to 20 | 1 to 20 | 20 to 100 | 1 to 20 | 1 to 20 | 1 to 20 | 1 to 20 | 1 to 20 | 20 to 100 | > 300
12 | C[C@@H](Oc1ccc2[nH]nc(-c3cnc(N4CCN(C(=O)N(C)C)CC4)nc3)c2c1)c1c(Cl)cncc1Cl [Example 19, 4-[5-[5-[(1R)-1-(3,5-Dichloro-4-pyridyl)ethoxy]-1H-indazol-3-yl]pyrimidin-2-yl]-N,N-dimethyl-piperazine-1-carboxamide] | 15 | 1 to 20 | 100 to 300 | 1 to 20 | 1 to 20 | 100 to 300 | 1 to 20 | 100 to 300 | 1 to 20 | 1 to 20 | 1 to 20 | – | –
